# Laboratory results as given in patent US20160122307A1, “PERHYDROQUINOXALINE DERIVATIVES” (DR. AUGUST WOLFF GMBH & CO. KG ARZNEIMITTEL, priority 2013, published 2016).
# Like-named read-outs stand apart in the source and are kept apart here.
# Assays:
# [1] = molecular target: T1, Human opiate κ receptors (Homo sapiens, UniProt P41145); assay type: binding; set-up: expressed in transfected cells; host or cells: HEK-293 cell membranes
# [2] = molecular target: T1, Human opiate κ receptors; assay: κ opioid receptor functional assay, [35S]GTPγS binding (assay C); assay type: biochemical; conditions: for activation at 1 µM: 0.5 h, read-out: % activation functional assay at 1 μM
# [3] = read-out: EC50 (nM) [35S]GTPγS binding
# T1 sequence (P41145 whole entry): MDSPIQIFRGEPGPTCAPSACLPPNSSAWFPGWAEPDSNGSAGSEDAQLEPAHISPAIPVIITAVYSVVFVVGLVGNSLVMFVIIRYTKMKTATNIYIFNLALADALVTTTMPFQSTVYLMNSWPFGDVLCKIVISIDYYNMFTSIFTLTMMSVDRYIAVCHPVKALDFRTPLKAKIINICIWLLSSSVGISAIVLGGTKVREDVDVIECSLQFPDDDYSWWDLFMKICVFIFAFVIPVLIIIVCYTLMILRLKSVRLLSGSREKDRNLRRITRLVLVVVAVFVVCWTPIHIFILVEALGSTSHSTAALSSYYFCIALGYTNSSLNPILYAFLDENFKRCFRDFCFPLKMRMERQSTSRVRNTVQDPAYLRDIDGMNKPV
SMILES,% binding at 100 nM [1],% activation functional assay at 1 μM [2],EC50 ([2]; read-out: GTPγS EC50),also measured
COC(=O)N1CCN(C(=O)Cc2ccc(Cl)c(Cl)c2)C2C(N3CCC(C(N)=O)C3)CCCC21.Cl (mixture of isomers) [Example 84],89%,99%,10 to 100 nM,
COC(=O)N1CCN(C(=O)Cc2cc(F)cc(F)c2)[C@@H]2[C@@H](N3CCCC3)CCC[C@@H]21.Cl (racemic) [Example 2],41%,,,
COC(=O)N1CCN(C(=O)Cc2ccc([N+](=O)[O-])cc2)[C@@H]2[C@@H](N3CCCC3)CCC[C@@H]21.Cl (racemic) [Example 4],43%,,,
COC(=O)N1CCN(C(=O)Cc2c[nH]c3ccccc23)[C@@H]2[C@@H](N3CCCC3)CCC[C@@H]21.Cl (racemic) [Example 9],43%,,,
COC(=O)N1CCN(C(=O)Cc2ccc(Cl)c(Cl)c2)[C@@H]2[C@@H](N(C)C)CCC[C@@H]21.Cl (racemic) [Example 17],92%,92%,< 10 nM,% binding at 1 μM [1]: 97%
Cl.O=C(Cc1ccc(Cl)c(Cl)c1)N1CCN(C(=O)NCc2ccccc2)[C@H]2CCC[C@H](N3CCCC3)[C@H]21 (racemic) [Example 41],92%,81%,< 10 nM,
Cl.NCC(=O)N1CCN(C(=O)Cc2ccc(Cl)c(Cl)c2)[C@@H]2[C@@H](N3CCCC3)CCC[C@@H]21 (racemic) [Example 44],41%,,,
CCOC(=O)COC(=O)N1CCN(C(=O)Cc2ccc(Cl)c(Cl)c2)C2C(N3CCCC3)CCCC21.Cl (stereo not drawn) [Example 111],105%,105%,< 10 nM,
CC(C)NC(=O)N1CCN(C(=O)Cc2ccc(Cl)c(F)c2)C2C(N3CCC(O)C3)CCCC21.Cl (stereo not drawn) [Example 119],,102%,10 to 100 nM,
CC(C)NC(=O)N1CCN(C(=O)Cc2ccc(Cl)c(Cl)c2)C2C(N3CCC(O)C3)CCCC21.Cl (stereo not drawn) [Example 120],,100%,< 10 nM,
CS(=O)(=O)N1CCN(C(=O)Cc2ccc(Cl)c(Cl)c2)C2C(N3CCC(O)C3)CCCC21.Cl (stereo not drawn) [Example 121],,106%,< 10 nM,
CC(C)OC(=O)C(=O)N1CCN(C(=O)Cc2ccc(Cl)c(Cl)c2)[C@@H]2[C@@H](N3CCCC3)CCC[C@@H]21.Cl [Example 123],68%,99%,< 10 nM,
CS(=O)(=O)N1CCN(C(=O)Cc2ccc(C(F)(F)F)c(Cl)c2)[C@@H]2[C@@H](N3CC[C@H](O)C3)CCC[C@@H]21 [Example 124],,,,activation at 1 µM [2]: 97%; EC50 ([2]; GTPγS EC50 (nM)): < 10 nM
Cl.O=C(Cc1ccc(Cl)c(Cl)c1)N1CCN(S(=O)(=O)N2CCCC2)C2CCCC(N3CCC(O)C3)C21 (stereo not drawn) [Example 127],66%,100%,10 to 100 nM,
Cl.O=C(Cc1ccc(Cl)c(Cl)c1)N1CCN(S(=O)(=O)c2cn[nH]c2)C2CCCC(N3CCC(O)C3)C21 (stereo not drawn) [Example 128],92%,95%,< 10 nM,
CN(C)S(=O)(=O)N1CCN(C(=O)Cc2ccc(Cl)c(Cl)c2)C2C(N3CCC(O)C3)CCCC21.Cl (stereo not drawn) [Example 129],80%,104%,< 10 nM,
Cl.O=C(Cc1ccc(Cl)c(Cl)c1)N1CCN(S(=O)(=O)NCCO)C2CCCC(N3CCC(O)C3)C21 (stereo not drawn) [Example 130],70%,102%,10 to 100 nM,
CNS(=O)(=O)N1CCN(C(=O)Cc2ccc(Cl)c(Cl)c2)C2C(N3CCC(O)C3)CCCC21.Cl (stereo not drawn) [Example 131],78%,104%,< 10 nM,

SMILES,% binding at 100 nM [1],% activation functional assay at 1 μM [2],EC50 ([2]; read-out: GTPγS EC50),also measured
CCNS(=O)(=O)N1CCN(C(=O)Cc2ccc(Cl)c(Cl)c2)C2C(N3CCC(O)C3)CCCC21.Cl (stereo not drawn) [Example 132],71%,106%,< 10 nM,
CCCNS(=O)(=O)N1CCN(C(=O)Cc2ccc(Cl)c(Cl)c2)C2C(N3CCC(O)C3)CCCC21.Cl (stereo not drawn) [Example 133],74%,105%,< 10 nM,
CC(C)NS(=O)(=O)N1CCN(C(=O)Cc2ccc(Cl)c(Cl)c2)[C@@H]2[C@@H](N3CC[C@H](O)C3)CCC[C@@H]21 [Example 134],67%,102%,< 10 nM,
O=C(Cc1ccc(Cl)c(Cl)c1)N1CCN(S(=O)(=O)NC2CCCC2)[C@H]2CCC[C@H](N3CC[C@H](O)C3)[C@H]21 [Example 135],76%,105%,< 10 nM,
COC(=O)N1CCN(C(=O)Cc2ccc(F)c(F)c2)[C@@H]2[C@@H](N3CC[C@H](O)C3)CCC[C@@H]21 [Example 138],,,,activation at 1 µM [2]: 108%; EC50 ([2]; GTPγS EC50 (nM)): 10 to 100 nM
COC(=O)N1CCN(C(=O)Cc2ccc(C(F)(F)F)cc2)[C@@H]2[C@@H](N3CC[C@H](O)C3)CCC[C@@H]21 [Example 139],,,,activation at 1 µM [2]: 104%; EC50 ([2]; GTPγS EC50 (nM)): < 10 nM
COC(=O)N1CCN(C(=O)Cc2ccc(Cl)cc2)[C@@H]2[C@@H](N3CC[C@H](O)C3)CCC[C@@H]21 [Example 140],,,,activation at 1 µM [2]: 103%; EC50 ([2]; GTPγS EC50 (nM)): 10 to 100 nM
COC(=O)N1CCN(C(=O)Cc2ccc(C(F)(F)F)c(F)c2)[C@@H]2[C@@H](N3CC[C@H](O)C3)CCC[C@@H]21 [Example 141],,,,activation at 1 µM [2]: 99%; EC50 ([2]; GTPγS EC50 (nM)): < 10 nM
COC(=O)N1CCN(C(=O)Cc2cccc(C(F)(F)F)c2)[C@@H]2[C@@H](N3CC[C@H](O)C3)CCC[C@@H]21 [Example 142],,,,activation at 1 µM [2]: 106%; EC50 ([2]; GTPγS EC50 (nM)): 10 to 100 nM
COC(=O)N1CCN(C(=O)Cc2cccc(Cl)c2)[C@@H]2[C@@H](N3CC[C@H](O)C3)CCC[C@@H]21 [Example 143],,,,activation at 1 µM [2]: 102%; EC50 ([2]; GTPγS EC50 (nM)): 10 to 100 nM
"O=C(c1ccccc1)N1CCN(C(=O)Cc2ccc(Cl)c(Cl)c2)C2C(N3CCCC3)CCCC21 (stereo not drawn) [L, reference compound]",,,,activation (% of control) at 1 μM [2]: 74 % of control
"CCC(=O)N1CCN(C(=O)Cc2ccc(Cl)c(Cl)c2)C2C(N3CCCC3)CCCC21 (stereo not drawn) [N, reference compound]",,,,"activation (% of control) at 1 μM [2]: 63 % of control; EC50 [2, 3]: 600 nM"
"COC(=O)CC(=O)N1CCN(C(=O)Cc2ccc(Cl)c(Cl)c2)C2C(N3CCCC3)CCCC21 (stereo not drawn) [P, reference compound]",,,,"activation (% of control) at 1 μM [2]: 81 % of control; EC50 [2, 3]: 220 nM"
"O=C(c1ccccc1)N1CCN(C(=O)Cc2ccc(Cl)c(Cl)c2)C2C(N3CCC(O)C3)CCCC21 (stereo not drawn) [R, reference compound]",,,,activation (% of control) at 1 μM [2]: 63 % of control
"COC(=O)N1CCN(C(=O)Cc2ccc(Cl)c(Cl)c2)C2C(N3CCC(O)C3)CCCC21 (stereo not drawn) [S, reference compound]",,,,"activation (% of control) at 1 μM ([2]; 1 µM): 91 % of control; EC50 [2, 3]: 85 nM"
"COC(=O)CC(=O)N1CCN(C(=O)Cc2ccc(Cl)c(Cl)c2)C2C(N3CCC(O)C3)CCCC21 (stereo not drawn) [U, reference compound]",,,,"activation (% of control) at 1 μM [2]: 86 % of control; EC50 [2, 3]: 170 nM"
"CCCCN1CCN(C(=O)Cc2ccc(Cl)c(Cl)c2)C2C(N3CCCC3)CCCC21 (stereo not drawn) [W, reference compound]",,,,"activation (% of control) at 1 μM [2]: 113 % of control; EC50 [2, 3]: 12 nM"
"COc1ccc(CN2CCN(C(=O)Cc3ccc(Cl)c(Cl)c3)C3C(N4CCCC4)CCCC32)cc1 (stereo not drawn) [X, reference compound]",,,,"activation (% of control) at 1 μM [2]: 91 % of control; EC50 [2, 3]: 26 nM"
